Laboratory results taken from patent publication US5028601A, “Cephalosporin compounds and antibacterial agents” (Meiji Saika Kaisha, Ltd., priority 1987, dated 1991).
Read-outs that look alike come from different tables or passages of the source.

What was measured:
Type in all cases: cell-based
Set-up in all cases: unit not given here
[1] = test system: Pseudomonase cepacia M-0527; experiment: Minimum growth inhibitory concentration, Pseudomonase cepacia M-0527
[2] = test system: Staphylococcus aureus 209P JC-1; experiment: Minimum growth inhibitory concentration, Staphylococcus aureus 209P JC-1
[3] = test system: Bacillus subtilis ATCC6633; experiment: Minimum growth inhibitory concentration, Bacillus subtilis ATCC6633
Proteus rettgeri GN-624 = experiment: Minimum growth inhibitory concentration, Proteus rettgeri GN-624
[4] = test system: Pseudomonas aeruginosa E-2; experiment: Minimum growth inhibitory concentration, Pseudomonas aeruginosa E-2
[5] = test system: Pseudomonas aeruginosa M-0148; experiment: Minimum growth inhibitory concentration, Pseudomonas aeruginosa M-0148
Escherichia coli No. 255 = experiment: Minimum growth inhibitory concentration, Escherichia coli No. 255
[6] = test system: Citrobacter freundii GN-346; experiment: Minimum growth inhibitory concentration, Citrobacter freundii GN-346
[7] = test system: Staphylococcus aureus Smith (1); experiment: Minimum growth inhibitory concentration, Staphylococcus aureus Smith (1)
Escherichia coli No. 29 = experiment: Minimum growth inhibitory concentration, Escherichia coli No. 29
[8] = test system: Serratia marcescens No. 1; experiment: Minimum growth inhibitory concentration, Serratia marcescens No. 1
[9] = test system: Enterobacter cloacae GN-471; experiment: Minimum growth inhibitory concentration, Enterobacter cloacae GN-471
[10] = test system: Pseudomonas aeruginosa IAM-1007; experiment: Minimum growth inhibitory concentration, Pseudomonas aeruginosa IAM-1007
Proteus vulgaris GN-76 = experiment: Minimum growth inhibitory concentration, Proteus vulgaris GN-76
[11] = test system: Klebsiella pneumoniae GN-69; experiment: Minimum growth inhibitory concentration, Klebsiella pneumoniae GN-69
[12] = Staphylococcus aureus 209P JC-1
[13] = Staphylococcus aureus Smith (1)
[14] = Pseudomonas aeruginosa IAM-1007

Row | SMILES | Minimum Growth Inhibitory Concentration [1] | Minimum Growth Inhibitory Concentration [2, 12] | Minimum Growth Inhibitory Concentration ([3]; Bacillus subtilis ATCC6633) | Minimum Growth Inhibitory Concentration (Proteus rettgeri GN-624; Proteus rettgeri GN-624) | Minimum Growth Inhibitory Concentration ([4]; Pseudomonas aeruginosa E-2) | Minimum Growth Inhibitory Concentration ([5]; Pseudomonas aeruginosa M-0148) | Minimum Growth Inhibitory Concentration (Escherichia coli No. 255) | Minimum Growth Inhibitory Concentration ([6]; Citrobacter freundii GN-346) | Minimum Growth Inhibitory Concentration [7, 13] | Minimum Growth Inhibitory Concentration (Escherichia coli No. 29) | Minimum Growth Inhibitory Concentration ([8]; Serratia marcescens No. 1) | Minimum Growth Inhibitory Concentration ([9]; Enterobacter cloacae GN-471) | Minimum Growth Inhibitory Concentration [10, 14] | Minimum Growth Inhibitory Concentration (Proteus vulgaris GN-76; Proteus vulgaris GN-76) | Minimum Growth Inhibitory Concentration ([11]; Klebsiella pneumoniae GN-69) | further results
1 | Nc1nc(/C(=N/OCc2cc(=O)c(O)c[nH]2)C(=O)N[C@@H]2C(=O)N3C(C(=O)[O-])=C(C[n+]4ccccc4)CS[C@H]23)cs1 [A, reference compound] | 0.39 | 3.13 | 1.56 | 12.5 | 3.13 | 25 | 1.56 | 25 | 3.13 | 0.20 | 0.20 | 3.13 | 3.13 | 0.20 | 0.20 | –
2 | CC(C)(O/N=C(\C(=O)N[C@@H]1C(=O)N2C(C(=O)[O-])=C(C[n+]3ccccc3)CS[C@H]12)c1csc(N)n1)C(=O)O [B, Ceftazidime, reference compound] | 0.78 | – | – | – | – | – | – | – | – | 0.20 | – | – | – | – | – | Minimum Growth Inhibitory Concentration [2]: 3.13; Minimum Growth Inhibitory Concentration [3]: 6.25; Minimum Growth Inhibitory Concentration (Proteus rettgeri GN-624): 0.39; Minimum Growth Inhibitory Concentration [4]: 1.56; Minimum Growth Inhibitory Concentration [5]: 3.13; Minimum Growth Inhibitory Concentration [6]: 50; Minimum Growth Inhibitory Concentration [7]: 3.13; Minimum Growth Inhibitory Concentration [8]: < 0.025; Minimum Growth Inhibitory Concentration [9]: 3.13; Minimum Growth Inhibitory Concentration [10]: 1.56; Minimum Growth Inhibitory Concentration (Proteus vulgaris GN-76): 0.05; Minimum Growth Inhibitory Concentration [11]: 0.10
3 | C[n+]1ccc(SCC2=C(C(=O)[O-])N3C(=O)[C@@H](NC(=O)/C(=N\OCc4cc(=O)c(O)cn4O)c4csc(N)n4)[C@H]3SC2)cc1 [Example 1, (6R,7R)-7-[(Z)-2-(2-Aminothiazole-4-yl)-2-(1,5-dihydroxy-4-pyridone-2-yl)methoxyiminoacetamido]-3-(1-methylpyridinium-4-yl)thiomethyl-ceph-3em-4-carboxylate] | < 0.025 | 3.13 | 12.5 | 0.10 | 0.05 | 0.20 | 0.10 | 12.5 | 3.13 | 0.05 | 0.05 | 1.56 | 0.10 | 0.05 | < 0.025 | –
4 | Nc1nc(/C(=N/OCc2cc(=O)c(O)cn2O)C(=O)N[C@@H]2C(=O)N3C(C(=O)[O-])=C(CSc4cc[n+](CCO)cc4)CS[C@H]23)cs1 [Example 3, (6R,7R)-7-[(Z)-2-(2 Aminothiazole-4-yl)-2-(1,5-dihydroxy-4-pyridone-2-yl)methoxyiminoacetamido]-3-[1-(2-hydroxyethyl)pyridinium-4-yl]thiomethyl-ceph-3-em-4-carboxylate] | < 0.025 | 3.13 | 12.5 | 0.10 | 0.05 | 0.20 | 0.20 | 6.25 | 6.25 | 0.05 | 0.10 | 1.56 | 0.10 | 0.05 | 0.05 | –
5 | C[n+]1ccc(SCC2=C(C(=O)[O-])N3C(=O)[C@@H](NC(=O)/C(=N\OCc4cc(=O)c(O)cn4O)c4csc(N)n4)[C@H]3SC2)c2c1CCC2 [Example 4] | < 0.025 | 3.13 | 12.5 | 0.20 | 0.10 | 0.10 | 0.20 | 1.56 | 6.25 | < 0.025 | 0.10 | 0.78 | 0.10 | < 0.025 | 0.10 | –
6 | Cn1c(SCC2=C(C(=O)O)N3C(=O)[C@@H](NC(=O)/C(=N\OCc4cc(=O)c(O)cn4O)c4csc(N)n4)[C@H]3SC2)nnc(O)c1=O [Example 9, (6R,7R)-7-[(Z)-2-(2-Aminothiazole-4-yl)-2-(1,5-dihydroxy-4-pyridone-2-yl)methoxyiminoacetamido]-3-(4,5-dihydro-4-methyl 5-oxo-6-hydroxy-1,2,4-triazine-3-yl)thiomethyl-ceph-3-em-4-carboxylic acid] | < 0.025 | 6.25 | 12.5 | 0.20 | 0.05 | 0.39 | 0.20 | 3.13 | 12.5 | < 0.025 | 0.05 | 3.13 | 0.39 | < 0.025 | < 0.025 | –
7 | Nc1nc(/C(=N/OCc2cc(=O)c(O)cn2O)C(=O)N[C@@H]2C(=O)N3C(C(=O)[O-])=C(C[n+]4ccccc4)CS[C@H]23)cs1 [Example 14, (6R,7R)-7-[(Z)-2-(2-Aminothiazole-4-yl)-2-(1,5-dihydroxy-4-pyridone-2-yl)methoxyiminoacetamido]-3-pyridiniummethyl-ceph-3-em-4-carboxylate] | < 0.025 | 6.25 | 12.5 | 3.13 | 0.10 | 0.78 | 0.78 | 6.25 | 6.25 | 0.10 | 0.10 | 3.13 | 0.39 | 0.20 | 0.10 | –
